Measured values published in US9447038B2 (SANOFI, priority 2012, dated 2016).
pIC50: −log10 of the molar value. Where a name gives a salt, the structure may show the parent alone.

Each molecule was assayed against human CXCR3-A receptor (Homo sapiens (Human), UniProt P49682) (assay: 125I-CXCL10 competition radioligand binding assay). Conditions: displacement of 125I-CXCL10 from membranes of CHO cells expressing human recombinant CXCR3-A.
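Note: One-hour incubation of membranes with tracer, bound radioligand separated by glass fibre filtration, IC50 derived from four-parameter nonlinear fit of competition curves.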

Sequence of human CXCR3-A receptor (P49682 whole entry): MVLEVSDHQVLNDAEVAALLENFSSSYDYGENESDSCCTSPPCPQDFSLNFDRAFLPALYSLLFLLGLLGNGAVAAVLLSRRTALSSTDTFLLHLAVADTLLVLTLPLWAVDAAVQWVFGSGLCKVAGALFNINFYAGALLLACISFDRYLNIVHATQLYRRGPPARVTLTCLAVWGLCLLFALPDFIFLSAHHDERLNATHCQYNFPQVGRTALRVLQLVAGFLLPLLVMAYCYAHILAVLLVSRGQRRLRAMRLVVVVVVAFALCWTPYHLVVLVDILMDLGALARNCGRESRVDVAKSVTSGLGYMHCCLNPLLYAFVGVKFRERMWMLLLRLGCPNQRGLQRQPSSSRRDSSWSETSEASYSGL

First: CCCCN(Cc1ccc(CCCN2C(=O)CCC2=O)c(OC)c1)C(CC(=O)O)c1ccc2c(c1)CCO2 (stereo not shown) [Example 140, 3-(Butyl-{4-[3-(2,5-dioxo-pyrrolidin-1-yl)-propyl]-3-methoxy-benzyl}-amino)-3-(2,3-dihydro-benzofuran-5-yl)-propionic acid]
Second: CCCCN(Cc1ccc(CCCN2C(=O)CCC2=O)c(C)c1)C(CC(=O)O)c1ccc2c(c1)CCO2 (stereo not shown) [Example 177, 3-(Butyl-{4-[3-(2,5-dioxo-pyrrolidin-1-yl)-propyl]-3-methyl-benzyl}-amino)-3-(2,3-dihydro-benzofuran-5-yl)-propionic acid]
The pIC50 of the first is 0.70 log units higher: 7.29 for the first, 6.59 for the second.

`COc1cc(CN(CC2CCCCC2)C(CC(=O)O)c2ccc(Cl)cc2)ccc1OCCN1C(=O)CCC1=O` (stereo not shown) [Example 40, 3-(4-Chloro-phenyl)-3-(cyclohexylmethyl-{4-[2-(2,5-dioxo-pyrrolidin-1-yl)-ethoxy]-3-methoxy-benzyl}-amino)-propionic acid] and `COc1cc(CN(CC2CCCC2)C(CC(=O)O)c2ccc(Cl)cc2)ccc1SCCN1C(=O)CCC1=O` (stereo not shown) [Example 188, 3-(4-Chloro-phenyl)-3-(cyclopentylmethyl-{4-[2-(2,5-dioxo-pyrrolidin-1-yl)-ethylsulfanyl]-3-methoxy-benzyl}-amino)-propionic acid] are within 0.2 log units of each other in pIC50: 7.40 for the first, 7.51 for the second.

Compared with `O=C(O)C[C@@H](c1ccc(Cl)cc1)N(Cc1ccc(OCCN2C(=O)CCC2=O)c(Cl)c1)CC1CCC1` [Example 104, (S)-3-({3-Chloro-4-[2-(2,5-dioxo-pyrrolidin-1-yl)-ethoxy]-benzyl}-cyclobutylmethyl-amino)-3-(4-chloro-phenyl)-propionic acid], `Cc1cc(CN(CC2CC2)[C@H](CC(=O)O)c2ccc(Cl)c(Cl)c2)ccc1OCCN1C(=O)CCC1=O` [Example 27, (R)-3-(Cyclopropylmethyl-{4-[2-(2,5-dioxo-pyrrolidin-1-yl)-ethoxy]-3-methyl-benzyl}-amino)-3-(3,4-dichloro-phenyl)-propionic acid] is 0.23 log units higher in pIC50: 6.84 for the first, 7.07 for the second.

Going from `COc1cc(CN(CC2CC2)C(CC(=O)O)c2ccc(Cl)c(Cl)c2)ccc1SCCN1C(=O)CCC1=O` (stereo not shown) [Example 191, 3-(Cyclopropylmethyl-{4-[2-(2,5-dioxo-pyrrolidin-1-yl)-ethylsulfanyl]-3-methoxy-benzyl}-amino)-3-(3,4-dichloro-phenyl)-propionic acid] to `COc1cc(CN(CC2CC2)C(CC(=O)O)c2ccc(Cl)c(Cl)c2)ccc1OCCN1C(=O)CCC1=O` (stereo not shown) [Example 45, 3-(Cyclopropylmethyl-{4-[2-(2,5-dioxo-pyrrolidin-1-yl)-ethoxy]-3-methoxy-benzyl}-amino)-3-(3,4-dichloro-phenyl)-propionic acid], the pIC50 falls from 7.70 to 7.18 (0.52 log units). The first is the more potent here.

Going from `CCCCN(Cc1ccc(OCCn2c(=O)ccn(C)c2=O)c(C)c1)C(CC(=O)O)c1ccc2c(c1)CCO2` (stereo not shown) [Example 161, 3-(Butyl-{3-methyl-4-[2-(3-methyl-2,6-dioxo-3,6-dihydro-2H-pyrimidin-1-yl)-ethoxy]-benzyl}-amino)-3-(2,3-dihydro-benzofuran-5-yl)-propionic acid] to `CCCCN(Cc1ccc(OCCN2C(=O)CCC2=O)c(C)c1)C(CC(=O)O)c1ccc2c(c1)CCO2` (stereo not shown) [Example 145, 3-(Butyl-{4-[2-(2,5-dioxo-pyrrolidin-1-yl)-ethoxy]-3-methyl-benzyl}-amino)-3-(2,3-dihydro-benzofuran-5-yl)-propionic acid], the pIC50 rises from 7.12 to 7.42 (0.30 log units). The second is the more potent here.

Going from `COc1cc(CN(CC2CCCC2)C(CC(=O)O)c2ccc3c(c2)CCO3)ccc1OCCn1c(=O)ccn(C)c1=O` (stereo not shown) [Example 127, 3-(Cyclopentylmethyl-{3-methoxy-4-[2-(3-methyl-2,6-dioxo-3,6-dihydro-2H-pyrimidin-1-yl)-ethoxy]-benzyl}-amino)-3-(2,3-dihydro-benzofuran-5-yl)-propionic acid] to `COc1cc(CN(CC2CCCCC2)C(CC(=O)O)c2ccc3c(c2)CCO3)ccc1OCCn1c(=O)ccn(C)c1=O` (stereo not shown) [Example 128, 3-(Cyclohexylmethyl-{3-methoxy-4-[2-(3-methyl-2,6-dioxo-3,6-dihydro-2H-pyrimidin-1-yl)-ethoxy]-benzyl}-amino)-3-(2,3-dihydro-benzofuran-5-yl)-propionic acid], the pIC50 falls from 7.42 to 6.93 (0.49 log units). The first is the more potent here.

First: Cc1cc(CN(CCC(F)(F)F)C(CC(=O)O)c2ccc(Cl)c(Cl)c2)ccc1OCCN1C(=O)CCC1=O (stereo not shown) [Example 167, 3-(3,4-Dichloro-phenyl)-3-[{4-[2-(2,5-dioxo-pyrrolidin-1-yl)-ethoxy]-3-methyl-benzyl}-(3,3,3-trifluoro-propyl)-amino]-propionic acid]
Second: CCCN(Cc1ccc(OCCN2C(=O)CCC2=O)c(C)c1)C(CC(=O)O)c1ccc(Cl)c(Cl)c1 (stereo not shown) [Example 79, 3-(3,4-Dichloro-phenyl)-3-({4-[2-(2,5-dioxo-pyrrolidin-1-yl)-ethoxy]-3-methyl-benzyl}-propyl-amino)-propionic acid]
The pIC50 of the first is 1.33 log units lower: 5.61 for the first, 6.94 for the second.

`COc1cc(CN(CC(C)C)C(CC(=O)O)c2ccc(Cl)c(Cl)c2)ccc1SCCN1C(=O)CCC1=O` (stereo not shown) [Example 193, 3-(3,4-Dichloro-phenyl)-3-({4-[2-(2,5-dioxo-pyrrolidin-1-yl)-ethylsulfanyl]-3-methoxy-benzyl}-isobutyl-amino)-propionic acid] and `CCc1cc(CN(CC(C)C)C(CC(=O)O)c2ccc(Cl)c(F)c2)ccc1OCCN1C(=O)CCC1=O` (stereo not shown) [Example 92, 3-(4-Chloro-3-fluoro-phenyl)-3-({4-[2-(2,5-dioxo-pyrrolidin-1-yl)-ethoxy]-3-ethyl-benzyl}-isobutyl-amino)-propionic acid] are within 0.2 log units of each other in pIC50: 7.14 for the first, 7.18 for the second.

First: CCCN(Cc1ccc(OCCN2C(=O)CCC2=O)c(OC)c1)C(CC(=O)O)c1ccc(Cl)cc1 (stereo not shown) [Example 37, 3-(4-Chloro-phenyl)-3-({4-[2-(2,5-dioxo-pyrrolidin-1-yl)-ethoxy]-3-methoxy-benzyl}-propyl-amino)-propionic acid]
Second: CCCN(Cc1ccc(CCCN2C(=O)CCC2=O)c(OC)c1)C(CC(=O)O)c1ccc(Cl)cc1 (stereo not shown) [Example 133, 3-(4-Chloro-phenyl)-3-({4-[3-(2,5-dioxo-pyrrolidin-1-yl)-propyl]-3-methoxy-benzyl}-propyl-amino)-propionic acid]
The pIC50 of the first is 0.95 log units higher: 7.70 for the first, 6.75 for the second.

`CCCN(Cc1ccc(OCCN2C(=O)CCC2=O)c(Cl)c1)C(CC(=O)O)c1ccc(Cl)c(F)c1` (stereo not shown) [Example 105, 3-({3-Chloro-4-[2-(2,5-dioxo-pyrrolidin-1-yl)-ethoxy]-benzyl}-propyl-amino)-3-(4-chloro-3-fluoro-phenyl)-propionic acid] and `CCCN(Cc1ccc(OCCN2C(=O)CCC2=O)c(F)c1)C(CC(=O)O)c1ccc(Cl)c(F)c1` (stereo not shown) [Example 58, 3-(4-Chloro-3-fluoro-phenyl)-3-({4-[2-(2,5-dioxo-pyrrolidin-1-yl)-ethoxy]-3-fluoro-benzyl}-propyl-amino)-propionic acid] are within 0.2 log units of each other in pIC50: 6.68 for the first, 6.74 for the second.

First: COc1cc(CN(CC(C)C)C2c3ccc(Cl)cc3CC2C(=O)O)ccc1OCCN1C(=O)CCC1=O (stereo not shown) [Example 170, 5-Chloro-1-({4-[2-(2,5-dioxo-pyrrolidin-1-yl)-ethoxy]-3-methoxy-benzyl}-isobutyl-amino)-indan-2-carboxylic acid]
Second: CCCCN(Cc1ccc(OCCN2C(=O)CCC2=O)c(C)c1)C1c2ccc(Cl)cc2CC1C(=O)O (stereo not shown) [Example 173, 1-(Butyl-{4-[2-(2,5-dioxo-pyrrolidin-1-yl)-ethoxy]-3-methyl-benzyl}-amino)-5-chloro-indan-2-carboxylic acid]
The pIC50 of the first is 0.24 log units higher: 6.46 for the first, 6.22 for the second. The first is the more potent here.

First: COc1cc(CN(CC2CC2)[C@H](C(=O)O)c2ccc(Cl)c(Cl)c2)ccc1OCCN1C(=O)CCC1=O [Example 108, (S)-(Cyclopropylmethyl-{4-[2-(2,5-dioxo-pyrrolidin-1-yl)-ethoxy]-3-methoxy-benzyl}-amino)-(3,4-dichloro-phenyl)-acetic acid]
Second: O=C(O)CC(c1ccc(Cl)c(F)c1)N(Cc1ccc(OCCN2C(=O)CCC2=O)c(F)c1)CC1CCCCC1 (stereo not shown) [Example 61, 3-(4-Chloro-3-fluoro-phenyl)-3-(cyclohexylmethyl-{4-[2-(2,5-dioxo-pyrrolidin-1-yl)-ethoxy]-3-fluoro-benzyl}-amino)-propionic acid]
The pIC50 of the first is 0.22 log units higher: 6.70 for the first, 6.48 for the second.

Going from `CCCN(Cc1ccc(OCCn2c(=O)ccn(C)c2=O)c(OC)c1)C(CC(=O)O)c1ccc(Cl)c(Cl)c1` (stereo not shown) [Example 125, 3-(3,4-Dichloro-phenyl)-3-({3-methoxy-4-[2-(3-methyl-2,6-dioxo-3,6-dihydro-2H-pyrimidin-1-yl)-ethoxy]-benzyl}-propyl-amino)-propionic acid] to `CCCN(Cc1ccc(OCCN2C(=O)CCC2=O)c(OC)c1)C(CC(=O)O)c1cc(C)sc1C` (stereo not shown) [Example 204, 3-(2,5-Dimethyl-thiophen-3-yl)-3-({4-[2-(2,5-dioxo-pyrrolidin-1-yl)-ethoxy]-3-methoxy-benzyl}-propyl-amino)-propionic acid; hydrochloride], the pIC50 falls from 7.14 to 6.71 (0.43 log units). The first is the more potent here.

`Cc1cc(CN(CC2CCCCC2)[C@H](CC(=O)O)c2ccc(Cl)c(F)c2)ccc1OCCN1C(=O)CN(C)C1=O` [Example 35, (R)-3-(4-Chloro-3-fluoro-phenyl)-3-(cyclohexylmethyl-{3-methyl-4-[2-(3-methyl-2,5-dioxo-imidazolidin-1-yl)-ethoxy]-benzyl}-amino)-propionic acid] and `Cc1cc(CN(CC2CCCCC2)C(CC(=O)O)c2ccc3c(c2)CCO3)ccc1OCCN1C(=O)CCC1=O` (stereo not shown) [Example 149, 3-(Cyclohexylmethyl-{4-[2-(2,5-dioxo-pyrrolidin-1-yl)-ethoxy]-3-methyl-benzyl}-amino)-3-(2,3-dihydro-benzofuran-5-yl)-propionic acid] are within 0.2 log units of each other in pIC50: 7.12 for the first, 7.14 for the second.

Going from `CCCN(Cc1ccc(OCCN2C(=O)CCC2=O)c(C)c1)C(CC(=O)O)c1ccc(C)cc1` (stereo not shown) [Example 178, 3-({4-[2-(2,5-Dioxo-pyrrolidin-1-yl)-ethoxy]-3-methyl-benzyl}-propyl-amino)-3-p-tolyl-propionic acid] to `CCCCN(Cc1ccc(OCCN2C(=O)CCC2=O)c(F)c1)C(CC(=O)O)c1ccc(Cl)c(F)c1` (stereo not shown) [Example 59, 3-(Butyl-{4-[2-(2,5-dioxo-pyrrolidin-1-yl)-ethoxy]-3-fluoro-benzyl}-amino)-3-(4-chloro-3-fluoro-phenyl)-propionic acid], the pIC50 rises from 6.74 to 6.96 (0.22 log units).

Work on `Cc1cc(CN(C)C(c2ccc(Cl)cc2)C(C)C(=O)O)ccc1OCCN1C(=O)CCC1=O` (stereo not shown) [Example 176] yielded a pIC50 of 5.26.
